We go through 1 compound from US20240002332A1, “Small Molecule Inhibitors of SARS-CoV-2 Infections” (priority 2020, published 2024).

Where [1] appears, read: Compound P3 in plasma, PO 50 mg/kg (PO_A), C57BL/6 mice, individual mice, 50 mg/kg.
The mark [2] stands for this setting: Compound P3 in plasma, PO 100 mg/kg (PO_B), C57BL/6 mice, individual mice, 100 mg/kg.

Several values for one entry are separate records, joined by “and”; a condition that tells them apart may be missing. Equal entries are not always repeated. Where two headings read alike, the source gives them in different places.

The term Cmax denotes the maximum level reached in the sampled fluid or tissue. Broadly, the Tmax is the time at which the peak concentration occurs. For `O=C(Nc1ccc([N+](=O)[O-])cc1Cl)c1cc(Cl)ccc1OC(=O)N1CCNCC1` [Compound P3, 4-chloro-2-((2-chloro-4-nitrophenyl)carbamoyl)phenyl piperazine-1-carboxylate], the “AUC_% Extrap” value (Compound P3 in plasma, PO 50 mg/kg (PO_A), C57BL/6 mice, Mean n = 3) worked out at 33.5%. Further, under setting [1], the AUClast was 12332 ng·h/mL and 10489 ng·h/mL; the Cmax is 1920 ng/mL and 1560 ng/mL; the Tmax was 0.500 h; the t1/2 turned out to be 3.70 h. In addition, for the setting “Compound P3 in plasma, PO 100 mg/kg (PO_B), C57BL/6 mice, Mean n = 3”, the “AUC_% Extrap” value stood at 28.2%. Also, under setting [2], the AUCInf was 33619 ng·h/mL and 24577 ng·h/mL and 56087 ng·h/mL; the “AUC_% Extrap” value is 22.7% and 23.7% and 38.3%; the AUClast was 18757 ng·h/mL and 34617 ng·h/mL; the Cmax was 2340 ng/mL and 3880 ng/mL. Also, under setting [2], the t1/2 is 13.8 h and 19.8 h. Moreover, under “Compound P3 oral, mice”, the “in vivo conversion to niclosamide” value is listed as “effectively converted in vivo to the active niclosamide”. Moreover, the “plasma exposure of niclosamide vs that reported for oral niclosamide” value (oral Compound P3, mice) is recorded as “much improved plasma exposures of niclosamide”.
